26 molecules from ChEMBL document CHEMBL2021832, “On the search for potential anti-Trypanosoma cruzi drugs: synthesis and biological evaluation of 2-hydroxy-3-methylamino and 1,2,3-triazolic naphthoquinoidal compounds obtained by click chemistry reactions” (Eur J Med Chem, 2012) can be followed below.

pIC50: −log10 of the molar value. Activity calls are given as the source filed them. The calls are words filed in the database; no cut-off is given here.

The subject of data set [1] is Trypanosoma cruzi. Kind of data set: Trypanocidal activity against bloodstream form of Trypanosoma cruzi Y isolated from albino mouse blood after 24 hrs by neubauer chamber analysis. The class given is functional, organism-based.
Data set [2] is described as follows: Cytotoxicity against mouse embryo HMC after 24 hrs by Alamar blue assay. Particulars: mouse embryo HMC cells, read-out: LC50.
Data set [3] can be described thus: Selectivity index, ratio of LC50 for mouse embryo HMC to IC50 for bloodstream form of Trypanosoma cruzi Y.
In data set [4] the test system is Trypanosoma cruzi. Kind of data set: Ratio of benznidazole IC50 to compound IC50 for bloodstream form of Trypanosoma cruzi Y. Type of data set: functional.
The test system of another data set is Biomphalaria glabrata. The experiment in a line: Molluscicidal activity against Biomphalaria glabrata. Type of data set: functional, organism-based.

With `CCOC(=O)c1cn(C2=CC(=O)c3ccccc3C2=O)nn1`, in the data set with Trypanosoma cruzi [1], the negative logarithm of the IC50 (pIC50) was 4.17.
In the data set on Trypanosoma cruzi [1], `O=C1C=C(Cl)C(=O)c2ccccc21` gave a pIC50 of 4.91. Also, the CC50 at 24 h in data set [2] was 41.3 µM. In data set [3], the Ratio LC50/IC50 came to 3.6.
The molecule `COc1ccc(-c2cn(C3=CC(=O)c4ccccc4C3=O)nn2)cc1` showed a pIC50 in the data set with Trypanosoma cruzi [1] of 4.34.
Still for that read-out and setting: under `[N-]=[N+]=NC1=CC(=O)c2ccccc2C1=O` stands 4.38.
In the data set with Trypanosoma cruzi [1], `CC(C)=CCC1=C(OS(C)(=O)=O)C(=O)c2ccccc2C1=O` had a negative-log IC50 (pIC50) of 4.59. Moreover, the CC50 at 24 h in data set [2] worked out at 16.7 µM. Besides, the Ratio LC50/IC50 in data set [3] was 0.6.
As for `O=C1C=C(n2cc(-c3ccccc3)nn2)C(=O)c2ccccc21`, in the data set with Trypanosoma cruzi [1], the negative-log IC50 (pIC50) was 4.96. Moreover, the “Ratio IC50” value in the data set with Trypanosoma cruzi [4] is 9.5. For the same molecule, the CC50 at 24 h in data set [2] came out at 206 µM. Besides, the Ratio LC50/IC50 in data set [3] was determined as 18.9.
`O=C1C=C(O)C(=O)c2ccccc21` [LAWSONE]: the pIC50 in the data set on Trypanosoma cruzi [1] was less than 2.60.
In the case of `CC(C)(CO)NCC1=C(O)C(=O)c2ccccc2C1=O`, the pIC50 in the data set on Trypanosoma cruzi [1] was 3.43. Moreover, the result in the data set on Biomphalaria glabrata was Active.
Take `O=C1C(O)=C(CN2CC3CCC2CC3)C(=O)c2ccccc21`: in the data set with Trypanosoma cruzi [1], the pIC50 was 3.40. Further, the result in the data set with Biomphalaria glabrata was Active.
As for `CC(C)(O)c1cn(C2=CC(=O)c3ccccc3C2=O)nn1`, the pIC50 in the data set with Trypanosoma cruzi [1] is 4.10.
Consider `O=C1C(Cl)=C(n2cc(-c3ccccc3)nn2)C(=O)c2ccccc21`, for which the pIC50 in the data set on Trypanosoma cruzi [1] is 4.38.
With `Cc1ccc(-c2cn(C3C4=C(OC3(C)C)c3ccccc3C(=O)C4=O)nn2)cc1` (stereo not given), the pIC50 in the data set on Trypanosoma cruzi [1] is 4.40. Moreover, the “Ratio IC50” value in the data set with Trypanosoma cruzi [4] was found to be 2.5.
In the data set with Trypanosoma cruzi [1], `O=C1C=C(n2cc(-c3ccc(Br)cc3)nn2)C(=O)c2ccccc21` showed a pIC50 of 3.31.
Same read-out and setting: under `CC1(C)OC2=C(C(=O)C(=O)c3ccccc32)C1n1cc(-c2ccc(Br)cc2)nn1` (stereo not given) stands 3.99.
The molecule `CC1(C)OC2=C(C(=O)C(=O)c3ccccc32)C1n1cc(-c2ccc(F)cc2)nn1` (stereo not given) had a pIC50 with Trypanosoma cruzi [1] of 4.68. For the same molecule, in the data set on Trypanosoma cruzi [4], the “Ratio IC50” value was 2.5.
As to `[N-]=[N+]=NC1=C(Cl)C(=O)c2ccccc2C1=O`, the pIC50 in the data set on Trypanosoma cruzi [1] was 4.29. Moreover, the “Ratio IC50” value with Trypanosoma cruzi [4] amounted to 2.
In the data set on Trypanosoma cruzi [1], `CCCN(CCC)CC1=C(O)C(=O)c2ccccc2C1=O` gave a pIC50 of 3.69. In the data set on Biomphalaria glabrata, the outcome was Active.
Take `CC(C)=CCC1=C(OS(=O)(=O)c2ccc(C)cc2)C(=O)c2ccccc2C1=O`: in the data set with Trypanosoma cruzi [1], the pIC50 is 3.80.
For the molecule `Cc1ccc(-c2cn(C3=CC(=O)c4ccccc4C3=O)nn2)cc1`, the pIC50 with Trypanosoma cruzi [1] was 3.95.
`O=C1C=C(n2cc(CO)nn2)C(=O)c2ccccc21`: the pIC50 in the data set with Trypanosoma cruzi [1] was 4.75. Also, in the data set on Trypanosoma cruzi [4], the “Ratio IC50” value is given as 5.8. In data set [2], the CC50 at 24 h was determined as 107 µM. Besides, the Ratio LC50/IC50 in data set [3] came to 6.1.
In turn, `COc1ccc(-c2cn(C3C4=C(OC3(C)C)c3ccccc3C(=O)C4=O)nn2)cc1` (stereo not given) showed a pIC50 in the data set with Trypanosoma cruzi [1] of 3.44.
`O=C1C(O)=C(CN2CCCC2)C(=O)c2ccccc21` had a pIC50 in the data set with Trypanosoma cruzi [1] of 3.40. Besides, the outcome in the data set with Biomphalaria glabrata was Active.
For `O=C1C=C(n2cc(-c3ccc([N+](=O)[O-])cc3)nn2)C(=O)c2ccccc21`, the pIC50 with Trypanosoma cruzi [1] was 2.70.
In the data set on Trypanosoma cruzi [1], `O=C1C(O)=C(CNC2CCCC2)C(=O)c2ccccc21` showed a pIC50 of 3.44. Besides, the result in the data set with Biomphalaria glabrata was Active.
For the molecule `CC1(C)CC2=C(O1)c1ccccc1C(=O)C2=O` [NOR-BETA-LAPACHONE], the pIC50 with Trypanosoma cruzi [1] is less than 2.32.
`CC1(C)OC2=C(C(=O)C(=O)c3ccccc32)C1n1cc(-c2ccc([N+](=O)[O-])cc2)nn1` (stereo not given) had a pIC50 in the data set with Trypanosoma cruzi [1] of 4.66. Moreover, the “Ratio IC50” value in the data set on Trypanosoma cruzi [4] amounted to 2.5.
